Reference: US20040234981A1, “Method of determining dna base sequence” (priority 2001, published 2004)
Values joined by “and” are separate entries in the source; they are usually repeats but may differ in a detail not shown here. Equal values may be shown once.

B1: T7 RNA polymerase F644Y/Δ2: T7 RNA polymerase F644Y deficient in amino acids 172 and 173 and 178 through 180; plasmid pT7RF644Y/Δ2 (protein, UniProt P00573 1-883, looked up, variant F644Y del172-173 del178-180)
T7 RNA polymerase: MNTINIAKNDFSDIELAAIPFNTLADHYGERLAREQLALEHESYEMGEARFRKMFERQLKAGEVADNAAAKPLITTLLPKMIARINDWFEEVKAKRGKRPTAFQFLQEIKPEAVAYITIKTTLACLTSADNTTVQAVASAIGRAIEDEARFGRIRDLEAKHFKKNVEEQLNVGHVAFMQVVEADMLSKGLLGGEAWSSWHKEDSIHVGVRCIEMLIESTGMVSLHRQNAGVVGQDSETIELAPEYAEAIATRAGALAGISPMFQPCVVPPKPWTGITGGGYWANGRRPLALVRTHSKKALMRYEDVYMPEVYKAINIAQNTAWKINKKVLAVANVITKWKHCPVEDIPAIEREELPMKPEDIDMNPEALTAWKRAAAAVYRKDKARKSRRISLEFMLEQANKFANHKAIWFPYNMDWRGRVYAVSMFNPQGNDMTKGLLTLAKGKPIGKEGYYWLKIHGANCAGVDKVPFPERIKFIEENHENIMACAKSPLENTWWAEQDSPFCFLAFCFEYAGVQHHGLSYNCSLPLAFDGSCSGIQHFSAMLRDEVGGRAVNLLPSETVQDIYGIVAKKVNEILQADAINGTDNEVVTVTDENTGEISEKVKLGTKALAGQWLAYGVTRSVTKRSVMTLAYGSKEYGFRQQVLEDTIQPAIDSGKGLMFTQPNQAAGYMAKLIWESVSVTVVAAVEAMNWLKSAAKLLAAEVKDKKTGEILRKRCAVHWVTPDGFPVWQEYKKPIQTRLNLMFLGQFRLQPTINTNKDSEIDAHKQESGIAPNFVHSQDGSHLRKTVVWAHEKYGIESFALIHDSFGTIPADAANLFKAVRETMVDTYESCDVLADFYDQFADQLHESQLDKMPALPAKGNLNLRDILESDFAFA
B2: T7 RNA polymerase F644Y/Δ3: T7 RNA polymerase F644Y with Δ3 deficiency (DEL 178-180) (protein, UniProt P00573 1-883, looked up, variant F644Y del178-180)
T7 RNA polymerase: MNTINIAKNDFSDIELAAIPFNTLADHYGERLAREQLALEHESYEMGEARFRKMFERQLKAGEVADNAAAKPLITTLLPKMIARINDWFEEVKAKRGKRPTAFQFLQEIKPEAVAYITIKTTLACLTSADNTTVQAVASAIGRAIEDEARFGRIRDLEAKHFKKNVEEQLNKRVGHVAFMQVVEADMLSKGLLGGEAWSSWHKEDSIHVGVRCIEMLIESTGMVSLHRQNAGVVGQDSETIELAPEYAEAIATRAGALAGISPMFQPCVVPPKPWTGITGGGYWANGRRPLALVRTHSKKALMRYEDVYMPEVYKAINIAQNTAWKINKKVLAVANVITKWKHCPVEDIPAIEREELPMKPEDIDMNPEALTAWKRAAAAVYRKDKARKSRRISLEFMLEQANKFANHKAIWFPYNMDWRGRVYAVSMFNPQGNDMTKGLLTLAKGKPIGKEGYYWLKIHGANCAGVDKVPFPERIKFIEENHENIMACAKSPLENTWWAEQDSPFCFLAFCFEYAGVQHHGLSYNCSLPLAFDGSCSGIQHFSAMLRDEVGGRAVNLLPSETVQDIYGIVAKKVNEILQADAINGTDNEVVTVTDENTGEISEKVKLGTKALAGQWLAYGVTRSVTKRSVMTLAYGSKEYGFRQQVLEDTIQPAIDSGKGLMFTQPNQAAGYMAKLIWESVSVTVVAAVEAMNWLKSAAKLLAAEVKDKKTGEILRKRCAVHWVTPDGFPVWQEYKKPIQTRLNLMFLGQFRLQPTINTNKDSEIDAHKQESGIAPNFVHSQDGSHLRKTVVWAHEKYGIESFALIHDSFGTIPADAANLFKAVRETMVDTYESCDVLADFYDQFADQLHESQLDKMPALPAKGNLNLRDILESDFAFA

Key:
Assay type in all cases: biochemical
[1] = test system: fluorescent-labeled 3′-deoxynucleotide; assay: Ability to incorporate fluorescent-labeled 3′-deoxynucleotide, fluorescent signal intensity on ABI 377 XL Sequencer
Protocol: A comparison was conducted of the ability to incorporate florescent-labeled 3′-deoxynucleotide of Δ-type enzyme of purified T7 RNA polymerase.
This method was conducted in accordance with the method of Sasaki et al. (Sasaki, N., et al. Gene, 222(1): 17-24 (1998)). In greater detail, pBluescriptII DNA was employed as template. A solution obtained by mixing Bodipy(R6G)-3′dATP, Bodipy(FL)-3′dGTP, Bodipy(581/591)-3′dCTP, Bodipy(564/570)-3′dUTP, ATP, GTP, CTP, and UTP in prescribed proportions was employed to conduct reactions differing only with regard to the T7 RNA polymerase employed. The enzymes employed were 100 units of T7 RNA polymerase (wild type) and T7 RNA polymerase F644Y; and 50 units of T7 RNA polymerase F644Y/Δ1. The reaction product was subjected to electrophoresis with an ABI 377 XL Sequencer. The average value of the fluorescent signal intensity was compared for each nucleotide.
Column (2) is a conversion of the value of (1) per unit of enzyme. Numbers shown in parentheses denote values relative to a value of “1” for the signal intensity of wild enzyme. […] Since the ABI 377 XL Sequencer is not a device for quantitative analysis, and operations is conducted on an extremely small amount of samples, large errors are to be expected.

[2] = test system: 3′-dATP; assay: Test (2): 3′-dATP added during in vitro transcription with Biotin-labeled CTP, chemoluminescent signal detection; details: 3′-dATP concentration 0.00125 mM, wild form taken as 1, average of three runs
Protocol: (§1) The ability to incorporate 3′-dATP of the Δ type enzyme of purified T7 RNA polymerase was compared to that of the wild type and F644Y mutation.
In this method, 3′-dATP was added during an in vitro transcription reaction and the synthesis level was determined by comparison with synthesis impairment. This will be described in greater detail. The template employed was pBluescriptII (Stratagene) pretreated with the restriction enzyme ScaI (made by Nippon Gene). The reaction conditions were: 40 mM Tris-HCl, pH 8.0, 25 mM NaCl, 8 mM MgCl2, 2 mM spermidine-(HCl)3, and 5 mM DTT. The concentration of ribonucleotides rATP, rCTP, rGTP, and rUTP was 0.5 mM. A 0.1 mM quantity of Biotin-labeled CTP was added and 3′-dATP was added in ranges of 0.00125 mM, 0.0025 mM, and 0.005 mM. A 25 U quantity of enzymes purified as set forth above were added to 10 μL of this solution and the reaction was conducted for 60 min at 37° C. At the conclusion of the reaction, 1 μL of 10× gel loading buffer (1 mM EDTA, 1% SDS, 50% glycerol, and 0.05% BPB) was added. The entire solution was then subjected to electrophoresis in a 1% modified formamide gel. At the conclusion of electrophoresis, northern hybridization was conducted, the synthesized product was transcribed onto a nylon membrane, and signal detection was conducted based on a chemoluminescent substrate according to a protocol of anti-SA-AP antibody (made by Oriental Yeast Co., diluted 20,000-fold) and CDP-Star™ (made by Roche Co.). A Fluoro S Multiimager (BioRad Co.) and Multianalyst, an attached image analyzing software package, were then employed to determine the level of the signal detected.

[3] = test system: 3′-dATP; assay: Test (1): 3′-dATP added during in vitro transcription, amount of RNA synthesized (SYBER Green II gel image); details: 3′-dATP concentration 0.024 mM, wild form of T7 RNA polymerase taken as 1, inverse of RNA synthesis level
Protocol: as §1
In this method, 3′-dATP was added during an in vitro transcription reaction and the synthesis level was determined by comparison with synthesis impairment. This will be described in greater detail. The template employed was pBluescriptII (Stratagene) pretreated with the restriction enzyme ScaI (made by Nippon Gene). The reaction conditions were: 40 mM Tris-HCl, pH 8.0, 25 mM NaCl, 8 mM MgCl2, 2 mM spermidine-(HCl)3, and 5 mM DTT. The concentration of nucleotides ATP, CTP, GTP, and UTP was 0.5 mM. Of these, ATP was replaced with 3′-dATP (Sigma) in ranges of 0.006 mM, 0.008 mM, 0.012 mM, and 0.024 mM. The above purified enzymes were added to 20 μL of this solution and the reaction was conducted for 30 to 60 min at 37° C. At the conclusion of the reaction, 4 μL of 5× gel loading buffer was added (15% Ficoll, 0.1% BPB, 0.1% XC, 0.5% SDS, and 0.1 M EDTA). The entire solution was then subjected to electrophoresis in a 1% modified agarose gel containing formaldehyde. At the conclusion of electrophoresis, 10,000-fold dilution was conducted with SYBER Green II (made by Molecular Probe Co.) and dying was conducted for 20 to 40 min according to a protocol of addition to the product. A Fluoro S Multiimager (BiORad Co.) was then employed to irradiate ultraviolet radiation and pick up the fluorescent image. Multianalyst, an attached image analyzing software package, was used to determine the amount of RNA that had been synthesized from the image picked up. The various values of the results were compared. An increase in ability to incorporate 3′-dATP should result in a drop in the synthesis level. Accordingly, a comparison was made with a control, and the inverse thereof was employed as indicator of how readily 3′-dATP was incorporated.

[4] = relative to a value of 1 for the signal intensity of wild enzyme

| Molecule | (1) Average signal intensity U ([1]; Bodipy(564/570)-3′dUTP, 100 units of enzyme (50 units for F644Y/Δ1)) | (1) Average signal intensity C ([1]; Bodipy(581/591)-3′dCTP, 100 units of enzyme (50 units for F644Y/Δ1)) | (1) Average signal intensity G ([1]; Bodipy(FL)-3′dGTP, 100 units of enzyme (50 units for F644Y/Δ1)) | (1) Average signal intensity A ([1]; Bodipy(R6G)-3′dATP, 100 units of enzyme (50 units for F644Y/Δ1)) | (2) Signal intensity per unit of enzyme G ([1]; conversion of (1) per unit of enzyme) | Signal intensity per unit of enzyme A, value in parentheses relative to wild enzyme [1, 4] | Signal intensity per unit of enzyme C, value in parentheses relative to wild enzyme [1, 4] | Signal intensity per unit of enzyme G, value in parentheses relative to wild enzyme [1, 4] | Signal intensity per unit of enzyme U, value in parentheses relative to wild enzyme [1, 4] | Relative ability to incorporate 3′-dATP [2] | Relative ability to incorporate 3′-dATP [3] | Relative ability to incorporate 3′-dATP ([2]; listed as F644Y/Δ3) | Relative ability to incorporate 3′-dATP ([2]; listed as T7 RNA polymerase F644Y/Δ 3) |
| --- | --- | --- | --- | --- | --- | --- | --- | --- | --- | --- | --- | --- | --- |
| T7 RNA polymerase (wild type): wild RNA polymerase derived from T7 phage | 120 | 146 | 220 | 67 | 2.2 | (1.0) | (1.0) | (1.0) | (1.0) | 1.00 | 1.00 | – | – |
| B1 | – | – | – | – | – | – | – | – | – | – | almost the same results | – | – |
| B2 | – | – | – | – | – | – | – | – | – | – | – | 2.00±0.3 and 2.00 | 2.00 ± 0.3 |
